pEC50: −log10 of the molar value.
Assays:
Format in all cases: cell-based
hEP2/Gqs5 = target: T1, hEP2/Gqs5 (Homo sapiens, UniProt P43116); test: FLIPR calcium signal, EP2; details: HEK-293(EBNA) cells
T1 construct: expressed in transfected cells; host or cells: HEK-293(EBNA)
Method: (§1) HEK-293(EBNA) cells, stably expressing one type or subtype of recombinant human prostaglandin receptors (prostaglandin receptors expressed: hDP/Gqs5; hEP1; hEP2/Gqs5; hEP3A/Gqi5; hEP4/Gqs5; hFP; hIP; hTP), were cultured in 100 mm culture dishes in high-glucose DMEM medium containing 10% fetal bovine serum, 2 mM l-glutamine, 250 μg/ml geneticin (G418) and 200 μg/ml hygromycin B as selection markers, and 100 units/ml penicillin G, 100 μg/ml streptomycin and 0.25 μg/ml amphotericin B.
Cells were seeded at a density of 5×10^4 cells per well in Biocoat® Poly-D-lysine-coated black-wall, clear-bottom 96-well plates (Becton-Dickinson) and allowed to attach overnight in an incubator at 37° C. Cells were then washed two times with HBSS-HEPES buffer (Hanks Balanced Salt Solution without bicarbonate and phenol red, 20 mM HEPES, pH 7.4) using a Denley Cellwash plate washer (Labsystems). After 45 minutes of dye-loading in the dark, using the calcium-sensitive dye Fluo-4 […] at a final concentration of 2 μM, plates were washed four times with HBSS-HEPES buffer to remove excess dye leaving 100 μl in each well. Plates were re-equilibrated to 37° C. for a few minutes.
Cells were excited with an Argon laser at 488 nm, and emission was measured through a 510-570 nm bandwidth emission filter (FLIPR™, Molecular Devices, Sunnyvale, Calif.). Drug solution was added in a 50 μl volume to each well to give the desired final concentration. The peak increase in fluorescence intensity was recorded for each well. On each plate, four wells each served as negative (HBSS-HEPES buffer) and positive controls (standard agonists: BW245C (hDP); PGE2 (hEP1; hEP2/Gqs5; hEP3A/Gqi5; hEP4/Gqs5); PGF2α (hFP); carbacyclin (hIP); U-46619 (hTP), depending on receptor). The peak fluorescence change in each drug-containing well was then expressed relative to the controls.
Compounds were tested in a high-throughput (HTS) or concentration-response (CoRe) format. In the HTS format, forty-four compounds per plate were examined in duplicates at a concentration of 10^−5 M. To generate concentration-response curves, four compounds per plate were tested in duplicates in a concentration range between 10^−5 and 10^−11 M. The duplicate values were averaged. In either, HTS or CoRe format each compound was tested on at least 3 separate plates using cells from different passages to give an n≧3.

hEP3A/Gqi5 = target: T2, hEP3A/Gqi5 (Homo sapiens, UniProt P43115); test: FLIPR calcium signal, hEP3A; details: read-out: Other Receptors (EC50 in nM) hEP3A
T2 construct: expressed in transfected cells; host or cells: HEK-293(EBNA)
T2 sequence (P43115 1-390): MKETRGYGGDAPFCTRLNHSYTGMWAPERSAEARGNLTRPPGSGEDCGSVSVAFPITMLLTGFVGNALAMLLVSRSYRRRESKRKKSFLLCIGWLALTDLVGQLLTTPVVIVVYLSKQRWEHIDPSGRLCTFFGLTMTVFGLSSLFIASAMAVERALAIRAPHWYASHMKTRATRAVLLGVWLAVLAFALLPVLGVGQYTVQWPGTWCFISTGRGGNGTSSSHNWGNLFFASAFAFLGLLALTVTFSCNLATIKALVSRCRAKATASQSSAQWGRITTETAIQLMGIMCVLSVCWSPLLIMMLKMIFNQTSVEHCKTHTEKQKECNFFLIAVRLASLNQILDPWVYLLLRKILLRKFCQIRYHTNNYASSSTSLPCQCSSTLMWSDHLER
Method: as §1
Cells were seeded at a density of 5×10^4 cells per well in Biocoat® Poly-D-lysine-coated black-wall, clear-bottom 96-well plates (Becton-Dickinson) and allowed to attach overnight in an incubator at 37° C. Cells were then washed two times with HBSS-HEPES buffer (Hanks Balanced Salt Solution without bicarbonate and phenol red, 20 mM HEPES, pH 7.4) using a Denley Cellwash plate washer (Labsystems). […]
Cells were excited with an Argon laser at 488 nm, and emission was measured through a 510-570 nm bandwidth emission filter (FLIPR™, Molecular Devices, Sunnyvale, Calif.). […] The peak increase in fluorescence intensity was recorded for each well. […] The peak fluorescence change in each drug-containing well was then expressed relative to the controls. […]

EP2 = EP2 (Homo sapiens, UniProt P43116); test: cAMP assay, EP2; parameters: expressed in transfected cells; host or cells: HEK-EBNA; details: HEK-EBNA cells expressing EP2
Method: A 384-well drug plate was prepared to contain 6 test compounds, PGE2 and cAMP in 16 serial dilutions in triplicate, using a Biomek station. HEK-EBNA cells expressing a target PG receptor subtype (EP2 or EP4) were suspended in a stimulation buffer (HBSS, 0.1% BSA, 0.5 mM IBMX and 5 mM HEPES, pH 7.4) in a density of 10^4 cells/5 μl. The reaction was initiated by mixing 5 μL drug dilutions with 5 μl of HEK-EBNA cells in a well, carried out for 30 min at room temperature, and followed by the addition of 5 μl anti-cAMP acceptor beads in the control buffer with Tween-20 (25 mM NaCl, 0.03% Tween-20, 5 mM HEPES, pH7.4). After 30 min in the dark at room temperature, the mixtures were incubated with 15 μl biotinylated-cAMP/strepavidin donor beads in Lysis/Detection buffer (0.1% BSA, 0.3% Tween-20 and 5 mM HEPES, pH7.4) for 45 min at the room temperature. Fluorescence changes were read using a Fusion-alpha HT microplate reader.

Sequence of EP2 (P43116 whole entry): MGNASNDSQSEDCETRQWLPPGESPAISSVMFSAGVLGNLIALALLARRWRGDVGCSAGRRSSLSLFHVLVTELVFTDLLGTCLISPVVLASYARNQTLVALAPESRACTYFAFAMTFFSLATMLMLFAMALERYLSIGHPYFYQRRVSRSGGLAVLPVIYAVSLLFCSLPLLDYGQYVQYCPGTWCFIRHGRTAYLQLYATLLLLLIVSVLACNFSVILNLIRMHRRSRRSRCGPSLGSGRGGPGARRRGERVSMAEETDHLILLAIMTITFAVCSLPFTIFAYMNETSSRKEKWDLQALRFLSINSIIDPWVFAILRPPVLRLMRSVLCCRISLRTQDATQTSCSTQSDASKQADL
T1 sequence (P43116 whole entry): as above

O=C(O)c1ccc(CCC[C@@H]2[C@@H](CCc3cc(F)cc(F)c3)[C@H](O)C[C@H]2Cl)s1 [11d, 5-(3-((1R,2R,3R,5R)-5-chloro-2-(3,5-difluorophenethyl)-3-hydroxycyclopentyl)propyl)thiophene-2-carboxylic acid] showed a pEC50 (hEP2/Gqs5) of 8.00, an EC50 (hEP3A/Gqi5) of 8540 nM and a pEC50 (EP2) of 10.00.

O=C(O)c1ccc(CCC[C@@H]2[C@@H](CCc3cc(Cl)cc(Cl)c3)[C@@H](O)C[C@H]2Cl)s1 [compound 17, 5-(3-((1R,2R,3S,5R)-5-chloro-2-(3,5-dichlorophenethyl)-3-hydroxycyclopenty)propyl)thiophene-2-carboxylic acid] gave a pEC50 (hEP2/Gqs5) of 6.30, an EC50 (hEP3A/Gqi5) of over 10000 nM and a pEC50 (EP2) of 8.40.

Source: US7592366B2, “Therapeutic compounds” (Allergan, Inc., priority 2006, dated 2009)
